# Measured values: patent publication US6582940B1, “Method for producing calcium pantothenate” (Daiichi Fine Chemical Co., Ltd., priority 1998, dated 2003)
# Assay: hygroscopicity analysis (desiccator, relative humidity 82%, 40° C., 24 hours)
# Type: physicochemical
# Details: for amount of absorbed moisture: 1 g sample, relative humidity 82% (saturated aqueous potassium chloride), after 24 hours; for deliquescence in the hygroscopicity analysis: relative humidity 82%, 24 hours, macroscopic observation
# Experimental: The term “nondeliquescent” used in the specification means that a substance is nonhygroscopic (in general, an amount of absorbed moisture is 5% or less at 40° C. under 82% of relative humidity after 24 hours), or not suffered from deliquescence by moisture absorption. More specifically, the term means that no deliquescence is macroscopically observed in a part or whole surface of a solid calcium pantothenate at 40° C. under 82% of the relative humidity within 24 hours. The calcium pantothenate of the present invention comprising an amount of a crystalline component sufficient to prevent deliquescence is an example of the nondeliquescent and crystalline calcium pantothenate.
# This product was further dried by using a normal-pressure warm-air dryer at 80° C. for 30 minutes and milled in a mortar, and then sized through a filter No.83 and subjected to a hygroscopicity analysis. The sample (1 g) was placed in a desiccator adjusted to relative humidity of 82% with a saturated aqueous solution of potassium chloride at 40° C., and an amount of absorbed moisture after 24 hours was determined. […] An amorphous was dried in the same manner and the amount of absorbed moisture was determined under the same conditions. […] Moreover, the powder X-ray diffraction analysis of the aforementioned product gave the characteristic peak indicated by the arrow, which verified that the product was a crystalline substance containing the monohydrate (FIG. 1).
Substance,amount of absorbed moisture,deliquescence in the hygroscopicity analysis
calcium pantothenate [Example 2],0.7%,no deliquescence was observed
calcium pantothenate [Example 3],0.8%,no deliquescence was observed
"monocalcium bis[(R)-N-(2,4-dihydroxy-3,3-dimethylbutyryl)-β-alaninate] [amorphous calcium pantothenate, reference compound]",7.0%,macroscopically apparent deliquescence of the surface was observed
